Each molecule was assayed against SHP2 (Homo sapiens (Human), UniProt Q06124) (assay: SHP2 allosteric inhibition assay (DiFMUP prompt fluorescence)). Details: not given.
Assay type: biochemical

Compound	IC50
Cc1ccc(C(=O)CSc2cnc(N3CCC4(CC3)Cc3ccccc3[C@H]4N)cn2)cc1 [Example 267, (S)-2-((5-(1-amino-1,3-dihydrospiro[indene-2,4′-piperidin]-1′-yl)pyrazin-2-yl)thio)-1-(p-tolyl)ethan-1-one]	< 50 nM

Same assay, conditions: 0.25 nM SHP2 activated with 0.5 μM peptide IRS1_pY1172(dPEG8)pY1222; substrate DiFMUP

IC50	Compound
≤ 50 nM	Cc1nc(N2CCC3(CC2)Cc2ccccc2[C@H]3N)c(C)nc1Sc1ccnc(N)c1Cl [Example 215]
50 to 1000 nM	Nc1nccc(Sc2ccc(N3CCC4(CC3)Oc3ccccc3[C@H]4N)cn2)c1Cl [Example 216]
≤ 50 nM	Nc1nccc(Sc2ccc(N3CCC4(CC3)Cc3cc(F)ccc3[C@H]4N)cn2)c1Cl [Example 217]
≤ 50 nM	Nc1nccc(Sc2ccc(N3CCC4(CC3)Cc3ccc(F)cc3[C@H]4N)cn2)c1Cl [Example 218]
≤ 50 nM	Cc1cc(N2CCC3(CC2)Cc2ccccc2[C@H]3N)cnc1Sc1ccnc(N)c1Cl [Example 219]
≤ 50 nM	N#Cc1nc(Sc2ccnc(Cl)c2Cl)cnc1N1CCC2(CC1)Cc1ccccc1[C@H]2N [Example 220]
≤ 50 nM	Nc1nccc(Sc2cnc3c(n2)OC[C@H]2C[C@@]4(CCN32)Oc2ccccc2[C@@H]4N)c1Cl [Example 221]
≤ 50 nM	Nc1nccc(Sc2cnc3c(n2)OC[C@H]2C[C@@]4(CCN32)Oc2ccccc2[C@H]4N)c1Cl [Example 222]
≤ 50 nM	Cc1c(Sc2ccnc(N)c2Cl)nc2sc(N3CCC4(CC3)Cc3ccccc3[C@H]4N)nn12 [Example 223]
50 to 1000 nM	Nc1nccc(Sc2ccc(N3CCC4(CC3)Oc3cc(F)ccc3[C@H]4N)cn2)c1Cl [Example 224]
> 10000 nM	Nc1nccc(Sc2ccc(N3CCC4(CC3)Oc3ccc(F)cc3[C@H]4N)cn2)c1Cl [Example 225]
> 10000 nM	CNC(=O)c1cc(C)nc(N2CCC3(CC2)Cc2ccccc2[C@H]3N)c1 [Example 228]
≤ 50 nM	N[C@@H]1c2ccccc2CC12CCN(C1=Nc3ncc(C4CC4)cc3C1)CC2 [Example 229]
1000 to 10000 nM	N[C@@H]1c2ccccc2CC12CCN(c1cc(C(F)(F)F)c3nncn3n1)CC2 [Example 230]
≤ 50 nM	N[C@@H]1c2ccccc2CC12CCN(c1cnc(SC3CCCCC3)cn1)CC2 [Example 233, (3S)-1′-[5-(cyclohexylsulfanyl)pyrazin-2-yl]-1,3-dihydrospiro[indene-2,4′-piperidin]-3-amine]
> 10000 nM	N[C@@H]1c2ccccc2CC12CCN(c1cnc(S[C@@H]3CCOC3)cn1)CC2 [Example 235]
≤ 50 nM	N[C@@H]1c2ccccc2CC12CCN(c1cnc(SC3CCC3)cn1)CC2 [Example 236]
≤ 50 nM	N[C@@H]1c2ccccc2CC12CCN(c1ncc(SCC3CC3)c(=O)[nH]1)CC2 [Example 237]
≤ 50 nM	Cn1c(N2CCC3(CC2)Cc2ccccc2[C@H]3N)ncc(SCC2CC2)c1=O [Example 238]
50 to 1000 nM	N[C@@H]1c2cc(F)ccc2OC12CCN(c1cnc(SCC3CC3)cn1)CC2 [Example 239]
≤ 50 nM	N[C@@H]1c2ccc(F)cc2OC12CCN(c1cnc(SCC3CC3)cn1)CC2 [Example 240]

IC50	Compound
≤ 50 nM	N[C@@H]1c2ccccc2CC12CCN(c1cnc(SC3CC3)cn1)CC2 [Example 241, (S)-1′-(5-(cyclopropylthio)pyrazin-2-yl)-1,3-dihydrospiro[indene-2,4′-piperidin]-1-amine]
≤ 50 nM	Cn1c(N2CCC3(CC2)Cc2ccccc2[C@H]3N)ncc(Sc2cccc(Cl)c2Cl)c1=O [Example 242, (S)-2-(1-amino-1,3-dihydrospiro[indene-2,4′-piperidin]-1′-yl)-5-((2,3-dichlorophenyl)thio)-3-methylpyrimidin-4(3H)-one]
≤ 50 nM	N[C@@H]1c2ccccc2CC12CCN(c1ncc(SCC3CC3)nc1CO)CC2 [Example 244, (S)-(3-(1-amino-1,3-dihydrospiro[indene-2,4′-piperidin]-1′-yl)-6-((cyclopropylmethyl)thio)pyrazin-2-yl)methanol]
1000 to 10000 nM	Cc1nc2c(N3CCCc4c3ccn(C)c4=O)n[nH]c2nc1N1CCC2(CC1)Cc1cc(F)ccc1[C@H]2N [Example 245]
> 10000 nM	Cc1nc2c(N3CCCc4c3ccn(C)c4=O)n[nH]c2nc1N1CCC2(CC1)Cc1ccc(F)cc1[C@H]2N [Example 246, 1-{6-[(3S)-3-amino-5-fluoro-1,3-dihydrospiro[indene-2,4′-piperidin]-1′-yl]-5-methyl-1H-pyrazolo[3,4-b]pyrazin-3-yl}-6-methyl-1,2,3,4,5,6-hexahydro-1,6-naphthyridin-5-one]
1000 to 10000 nM	Cc1nc2c(N3CCCc4c3ccn(C)c4=O)n[nH]c2nc1N1CCC2(CC1)Cc1ccccc1[C@H]2N [Example 247, 1-{6-[(3S)-3-amino-1,3-dihydrospiro[indene-2,4′-piperidin]-1′-yl]-5-methyl-1H-pyrazolo[3,4-b]pyrazin-3-yl}-6-methyl-1,2,3,4,5,6-hexahydro-1,6-naphthyridin-5-one]
≤ 50 nM	Cc1nc(SC2CCCC2)cnc1N1CCC2(CC1)Cc1ccccc1[C@H]2N [Example 249, (3S)-1′-[5-(cyclopentylsulfanyl)-3-methylpyrazin-2-yl]-1,3-dihydrospiro[indene-2,4′-piperidin]-3-amine]
≤ 50 nM	Cc1nc(N2CCC3(CC2)Cc2ccccc2[C@H]3N)cnc1SC1CCCC1 [Example 250, (3S)-1′-[5-(cyclopentylsulfanyl)-6-methylpyrazin-2-yl]-1,3-dihydrospiro[indene-2,4′-piperidin]-3-amine]
> 10000 nM	N[C@@H]1c2ccccc2CC12CCN(c1cnc(OC3CCCC3)cn1)CC2 [Example 251, (3S)-1′-[5-(cyclopentyloxy)pyrazin-2-yl]-1,3-dihydrospiro[indene-2,4′-piperidin]-3-amine]
≤ 50 nM	N[C@@H]1c2ccccc2CC12CCN(c1nn3cc(C4CCCC4)nc3s1)CC2 [Example 252, (1S)-1′-{6-cyclopentylimidazo[2,1-b][1,3,4]thiadiazol-2-yl}-1,3-dihydrospiro[indene-2,4′-piperidin]-1-amine]
≤ 50 nM	N[C@@H]1c2ccccc2CC12CCN(c1nc3[nH]nc(N4CCCCC4)c3nc1C1CC1)CC2 [Example 255, (3S)-1′-[5-cyclopropyl-3-(piperidin-1-yl)-1H-pyrazolo[3,4-b]pyrazin-6-yl]-1,3-dihydrospiro[indene-2,4′-piperidin]-3-amine]
≤ 50 nM	N[C@@H]1c2ccccc2CC12CCN(c1cnc(C(=O)c3ccccc3)cn1)CC2 [Example 256, (S)-(5-(1-amino-1,3-dihydrospiro[indene-2,4′-piperidin]-1′-yl)pyrazin-2-yl)(phenyl)methanone]
≤ 50 nM	Nc1nccc(Sc2ccc(N3CCC4(CC3)Cc3ccccc3[C@H]4N)c(CO)n2)c1Cl [Example 258, {3-[(3S)-3-amino-1,3-dihydrospiro[indene-2,4′-piperidin]-1′-yl]-6-[(2-amino-3-chloropyridin-4-yl)sulfanyl]pyridin-2-yl}methanol]
≤ 50 nM	C[C@@H](O)c1nc(Sc2ccnc(Cl)c2Cl)cnc1N1CCC2(CC1)Cc1ccccc1[C@H]2N [Example 259, (1R)-1-{3-[(3S)-3-amino-1,3-dihydrospiro[indene-2,4′-piperidin]-1′-yl]-6-[(2,3-dichloropyridin-4-yl)sulfanyl]pyrazin-2-yl}ethan-1-ol]
≤ 50 nM	N[C@@H]1c2ccccc2CC12CCN(c1ncc(Sc3cccc(Cl)c3Cl)c(=O)[nH]1)CC2 [Example 261, 2-[(3S)-3-amino-1,3-dihydrospiro[indene-2,4′-piperidin]-1′-yl]-5-[(2,3-dichlorophenyl)sulfanyl]-3,4-dihydropyrimidin-4-one]
50 to 1000 nM	COc1nc(N2CCC3(CC2)Cc2ccccc2[C@H]3N)ncc1Sc1cccc(Cl)c1Cl [Example 262, (S)-1′-(5-((2,3-dichlorophenyl)thio)-4-methoxypyrimidin-2-yl)-1,3-dihydrospiro[indene-2,4′-piperidin]-1-amine]
≤ 50 nM	N[C@@H]1c2ccccc2CC12CCN(c1cnc(SCc3cccc(Cl)n3)cn1)CC2 [Example 263, (S)-1′-(5-(((6-chloropyridin-2-yl)methyl)thio)pyrazin-2-yl)-1,3-dihydrospiro[indene-2,4′-piperidin]-1-amine]
≤ 50 nM	N[C@@H]1c2ccccc2CC12CCN(c1cnc(SCC3CCCC3)cn1)CC2 [Example 264, (S)-1′-(5-((cyclopentylmethyl)thio)pyrazin-2-yl)-1,3-dihydrospiro[indene-2,4′-piperidin]-1-amine]
≤ 50 nM	Cc1nc(N2CCC3(CC2)Oc2ccccc2[C@H]3N)c(CO)nc1-c1cccc(Cl)c1Cl [Example 268, (R)-(3-(3-amino-3H-spiro[benzofuran-2,4′-piperidin]-1′-yl)-6-(2,3-dichlorophenyl)-5-methylpyrazin-2-yl)methanol]
≤ 50 nM	Cc1nc(N2CCC3(CC2)Cc2c(F)cccc2[C@H]3N)c(CO)nc1-c1cccc(Cl)c1Cl [Example 269, (S)-(3-(1-amino-4-fluoro-1,3-dihydrospiro[indene-2,4′-piperidin]-1′-yl)-6-(2,3-dichlorophenyl)-5-methylpyrazin-2-yl)methanol]

Compound	IC50
N[C@@H]1c2ccccc2CC12CCN(c1ncc(N3CCCCc4ccccc43)nc1CO)CC2 [Example 214, (S)-(3-(1-amino-1,3-dihydrospiro[indene-2,4′-piperidin]-1′-yl)-6-(2,3,4,5-tetrahydro-1H-benzo[b]azepin-1-yl)pyrazin-2-yl)methanol]	≤ 50 nM
Nc1nccc(Sc2cnc(C34C[C@@H]5C[C@@]6(Cc7ccccc7[C@H]6N)C[C@H](C3)N54)cn2)c1Cl (some centres unmarked) [Example 231]	> 10000 nM
Nc1nccc(Sc2cnc(C34C[C@@H]5C[C@@]6(C[C@H](C3)N54)Oc3ccccc3[C@H]6N)cn2)c1Cl (some centres unmarked) [Example 232]	≤ 50 nM
Cc1nc2c(N3CCCC3)n[nH]c2nc1N1CCC2(CC1)Cc1ccccc1[C@H]2N [Example 254, (1S)-1′-[5-methyl-3-(pyrrolidin-1-yl)-1H-pyrazolo[3,4-b]pyrazin-6-yl]-1,3-dihydrospiro[indene-2,4′-piperidin]-1-amine]	> 10000 nM
N[C@@H]1c2ccccc2CC12CCN(c1cnc(SCCc3ccccc3)cn1)CC2 [Example 265, (S)-1′-(5-(phenethylthio)pyrazin-2-yl)-1,3-dihydrospiro[indene-2,4′-piperidin]-1-amine]	≤ 50 nM
